Where “and” joins values, the source holds several entries; their conditions need not be identical. Identical values can stand only once. Like-named read-outs stand apart in the source and are kept apart here.
How the values were obtained:
GLUT1 [1] = molecular target: T1, GLUT1 (Homo sapiens, UniProt P11166); format: binding; conditions: for β (cooperativity parameter, second inhibitor molecule) / γ (hetero-cooperativity parameter) / Inhibition (type of modulation of CB binding) / Ki: 50 nM [3H]-CB; for β (cooperativity parameter, second inhibitor molecule) / γ (hetero-cooperativity parameter): eqn 6; for Inhibition (type of modulation of CB binding): competing ligand 0 to 100 μM; for Kd: cytochalasins, rounded values; for ΔG°: calculated as RT ln(1/KI); for ΔΔG°: change in ΔG° relative to baseline cytochalasin or forskolin; for β*γ: product; for α (homo-cooperativity factor): CB inhibition of [3H]-CB binding
T1 sequence (P11166 1-492): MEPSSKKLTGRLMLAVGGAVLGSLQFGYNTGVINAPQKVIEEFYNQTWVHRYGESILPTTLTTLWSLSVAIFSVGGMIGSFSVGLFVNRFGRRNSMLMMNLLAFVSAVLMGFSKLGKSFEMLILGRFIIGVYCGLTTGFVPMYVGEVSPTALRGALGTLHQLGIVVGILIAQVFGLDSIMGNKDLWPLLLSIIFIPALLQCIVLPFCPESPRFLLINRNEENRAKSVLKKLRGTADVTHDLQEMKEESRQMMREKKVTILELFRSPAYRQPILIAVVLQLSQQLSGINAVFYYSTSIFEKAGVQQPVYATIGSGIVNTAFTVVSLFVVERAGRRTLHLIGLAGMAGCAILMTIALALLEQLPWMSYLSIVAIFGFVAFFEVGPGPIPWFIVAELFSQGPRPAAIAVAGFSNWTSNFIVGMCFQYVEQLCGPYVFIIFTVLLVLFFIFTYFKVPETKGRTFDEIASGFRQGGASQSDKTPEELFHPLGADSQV

[2] = system: [3H]-CB binding to red cell membranes; conditions: cited from earlier work
GLUT1 [3] = molecular target: T1, GLUT1; test: biochemical
GLUT1 [4] = molecular target: T1, GLUT1
[5] = molecular target: T2, GLUT1-mediated sugar transport in red cells (Homo sapiens, UniProt P11166); test: Zero-trans 3-O-methylglucose uptake in red cells; format: cell-based
T2 sequence (P11166 1-492): T1 sequence (P11166 1-492)

[6] = molecular target: T2, GLUT1-mediated sugar transport in red cells; test: Equilibrium exchange 3-O-methylglucose uptake in red cells; format: cell-based
GLUT1 [7] = molecular target: T1, GLUT1; conditions: 4°C; cited from earlier work
[8] = Ki (affinity of unoccupied GLUT1 for ligand), 4°C, eqn 6, iterative free [I]
[9] = Ki, eqn 6, values in text or legends
[10] = read-out: Ki (affinity of unoccupied GLUT1 for ligand), 4°C, eqn 6, iterative free [I]

## C[C@H]1C/C=C/[C@H]2[C@@H]3O[C@]3(C)[C@@H](C)[C@H]3[C@H](Cc4ccccc4)NC(=O)[C@]32OC(=O)O/C=C/[C@@](C)(O)C1=O [CCE, Cytochalasin E]
GLUT1 [1]; 4°C
  β (cooperativity parameter, second inhibitor molecule): 7917 ± 2935
  γ (hetero-cooperativity parameter): 0.555 ± 0.016
GLUT1 [1]
  Inhibition (type of modulation of CB binding): 3
  ΔG°: -8.88 kcal/mol
  ΔΔG°: 0.01 kcal/mol
  β*γ: 4394
GLUT1 [1]; KL (Table 2, taken from Table 1)
  Kd: 100 nM
GLUT1 [1]; [8]
  Ki: 99 ± 8 nM
GLUT1 [1]; [9]
  Ki: 100 nM
[2]; read-out: Ki(app) for inhibition of [3H]-CB binding, red cell membranes
  Ki: ≥ 100000 nM

## C=C[C@@]1(C)CC(=O)[C@]2(O)[C@@]3(C)[C@@H](O)CCC(C)(C)[C@@H]3[C@H](O)[C@H](OC(C)=O)[C@@]2(C)O1 [FSK, forskolin]
GLUT1 [3]; KL, FSK inhibition of [3H]-FSK binding (50 nM), 4°C, eqn 7, assumes α = β = γ
  Kd: 2750 ± 787 nM
GLUT1 [3]; Kl, fit versus measured free FSK
  Kd: 2830 ± 754 nM
GLUT1 [3]; Kl, fit versus total FSK
  Kd: 3330 ± 893 nM
GLUT1 [4]
  Kd for forskolin binding relative to Kd for CB binding: at least 20 fold
GLUT1 [4]; FSK inhibition of [3H]-FSK binding, 4°C
  α (homo-cooperativity factor): 2.43 ± 0.23
GLUT1 [4]; fit versus measured free FSK
  α: 2.400 ± 0.212
GLUT1 [4]; fit versus simulated free FSK
  α: 2.434 ± 0.235
GLUT1 [4]; fit versus total FSK
  α: 2.383 ± 2.116
[5]
  Ki: 1900 ± 400 nM
[5]; human erythrocytes
  mode of inhibition of net sugar uptake: noncompetitive inhibitor
[5]; zero-trans, 2 μM FSK
  Kmapp for 3MG uptake in presence of inhibitor: 1.09 ± 0.15 mM
  Vmax for 3MG uptake in presence of inhibitor: 0.055 ± 0.004 mM/L/min
GLUT1 [1]; 4°C
  β (cooperativity parameter, second inhibitor molecule): 1.54 ± 0.73
  γ (hetero-cooperativity parameter): 0.93 ± 0.10 and 0.930 ± 0.103 and 0.9
GLUT1 [1]; 4°C, listed as forskolin
  γ (hetero-cooperativity parameter): 0.93
GLUT1 [1]
  Inhibition (type of modulation of CB binding): 1
  ΔG°: -6.95 kcal/mol
  β*γ: 1
GLUT1 [1]; [8]
  Ki: 3280 ± 960 nM
GLUT1 [1]; [9]
  Ki: 3280 ± 980 nM
[6]
  Ki: 1200 ± 600 nM
[6]; equilibrium exchange, 2 μM FSK
  Kmapp for 3MG uptake in presence of inhibitor: 48.5 ± 7.3 mM
  Vmax for 3MG uptake in presence of inhibitor: 8.3 ± 0.7 mM/L/min
[6]; human erythrocytes
  mode of inhibition of exchange sugar uptake: competitive inhibitor

## C=C1[C@@H](C)[C@H]2[C@H](Cc3ccccc3)NC(=O)[C@]23OC(=O)/C=C/[C@H](O)CCC[C@@H](C)C/C=C/[C@H]3[C@@H]1O [CCB, Cytochalasin B]
GLUT1 [7]
  time constant of binding to GLUT1: 1 s
GLUT1 [1]; 4°C
  β (cooperativity parameter, second inhibitor molecule): 6.284 ± 3.849
  γ (hetero-cooperativity parameter): 6.284 ± 3.849
  α (homo-cooperativity factor): 6.284 ±3.849
GLUT1 [1]; 4°C, listed as CB
  β (cooperativity parameter, second inhibitor molecule): 6.3
  γ (hetero-cooperativity parameter): 6.3
  α (homo-cooperativity factor): 6.284 ± 0.558
GLUT1 [1]
  Inhibition (type of modulation of CB binding): 1
  ΔG°: -8.88 kcal/mol
  β*γ: 39
GLUT1 [1]; fit versus measured free CB
  α: 5.441 ± 0.558
GLUT1 [1]; fit versus simulated free CB
  α: 7.01 ± 0.53
GLUT1 [1]; fit versus total CB
  α: 10.0 ± 1.0
[2]
  inhibition of CB binding: high affinity

## C=C1[C@@H](C)[C@H]2[C@H](Cc3ccccc3)NC(=O)[C@]23[C@H](OC(C)=O)/C=C/[C@](C)(O)C[C@@H](C)C/C=C/[C@H]3[C@@H]1O [CCH, Cytochalasin H]
GLUT1 [1]; 4°C
  β (cooperativity parameter, second inhibitor molecule): 249 ± 45
  γ (hetero-cooperativity parameter): 0.449 ± 0.019
GLUT1 [1]; 4°C, listed as CH
  β (cooperativity parameter, second inhibitor molecule): 249
  γ (hetero-cooperativity parameter): 0.45
GLUT1 [1]
  Inhibition (type of modulation of CB binding): 2
  ΔG°: -8.88 kcal/mol
  ΔΔG°: 0.00 kcal/mol
  β*γ: 110
GLUT1 [1]; read-out: KL (Table 2, taken from Table 1)
  Kd: 100 nM
GLUT1 [1]; [10]
  Ki: 98 ± 3 nM

## C=C1[C@@H](C)[C@H]2[C@H](Cc3ccccc3)NC(=O)[C@]23[C@H](O)/C=C/[C@](C)(O)C[C@@H](C)C/C=C/[C@H]3[C@@H]1O [CCJ, Cytochalasin J]
GLUT1 [1]; 4°C
  β (cooperativity parameter, second inhibitor molecule): 6399 ± 347
  γ (hetero-cooperativity parameter): 0.635 ± 0.013
GLUT1 [1]
  Inhibition (type of modulation of CB binding): 3
  ΔG°: -10.04 kcal/mol
  ΔΔG°: -1.16 kcal/mol
  β*γ: 4063
GLUT1 [1]; [10]
  Ki: 12 ± 1 nM

Reference: publication PMC3465710 (Biochemistry, 2011)
